As a reminder, the IC50 is the midpoint of a concentration-inhibition curve. By microsomal CLint is commonly meant the capacity of the preparation to metabolise the compound, expressed as a volume cleared per time. Broadly, the clearance is the rate of elimination divided by the concentration.

Active and inactive are the calls of the source. No cut-off for these calls is given here.

In data set [1] the test system is Syrian golden hamster. Briefly: Reduction of sebum ester production in golden syrian hamster ear topically dosed at 3% twice daily 5 days per week for two weeks. The data set is classed as functional, Mesocricetus auratus. On the set-up: scale not given: the % may be the effect or the level left.
In data set [2] the target is T1, Androgen receptor (Homo sapiens, UniProt P10275).
T1 sequence (P10275 whole entry): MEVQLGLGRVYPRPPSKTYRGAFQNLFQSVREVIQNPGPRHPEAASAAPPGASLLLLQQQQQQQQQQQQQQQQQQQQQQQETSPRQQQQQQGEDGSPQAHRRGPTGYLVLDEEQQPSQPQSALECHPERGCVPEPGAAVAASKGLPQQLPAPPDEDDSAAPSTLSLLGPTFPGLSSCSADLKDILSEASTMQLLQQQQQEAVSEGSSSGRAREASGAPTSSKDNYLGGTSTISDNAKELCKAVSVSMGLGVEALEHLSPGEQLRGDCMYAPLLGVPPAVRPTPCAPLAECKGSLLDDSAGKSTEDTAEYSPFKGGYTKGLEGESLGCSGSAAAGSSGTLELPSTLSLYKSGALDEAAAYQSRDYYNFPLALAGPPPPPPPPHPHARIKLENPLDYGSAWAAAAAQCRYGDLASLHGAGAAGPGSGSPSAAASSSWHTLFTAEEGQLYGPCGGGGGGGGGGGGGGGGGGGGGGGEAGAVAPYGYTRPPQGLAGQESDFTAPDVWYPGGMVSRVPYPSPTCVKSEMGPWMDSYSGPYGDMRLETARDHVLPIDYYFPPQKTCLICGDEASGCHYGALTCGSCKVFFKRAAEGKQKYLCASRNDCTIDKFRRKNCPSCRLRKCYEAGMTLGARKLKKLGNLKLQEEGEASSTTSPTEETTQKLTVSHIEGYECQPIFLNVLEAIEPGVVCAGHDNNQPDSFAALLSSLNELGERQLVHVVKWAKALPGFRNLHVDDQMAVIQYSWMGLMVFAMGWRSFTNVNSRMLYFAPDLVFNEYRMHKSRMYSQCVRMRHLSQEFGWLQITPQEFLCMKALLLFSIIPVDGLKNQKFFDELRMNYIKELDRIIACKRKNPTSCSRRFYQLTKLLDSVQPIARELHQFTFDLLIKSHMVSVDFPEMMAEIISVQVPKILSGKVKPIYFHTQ
Description: Antagonist activity against human androgen receptor expressed in human MDA-MB-453 cells assessed as inhibition of dihydrotestosterone-induced effect by luciferase receptor gene assay

Data set [3] deals with T2, Progesterone receptor (Homo sapiens, UniProt P06401).
T2 sequence (P06401 whole entry): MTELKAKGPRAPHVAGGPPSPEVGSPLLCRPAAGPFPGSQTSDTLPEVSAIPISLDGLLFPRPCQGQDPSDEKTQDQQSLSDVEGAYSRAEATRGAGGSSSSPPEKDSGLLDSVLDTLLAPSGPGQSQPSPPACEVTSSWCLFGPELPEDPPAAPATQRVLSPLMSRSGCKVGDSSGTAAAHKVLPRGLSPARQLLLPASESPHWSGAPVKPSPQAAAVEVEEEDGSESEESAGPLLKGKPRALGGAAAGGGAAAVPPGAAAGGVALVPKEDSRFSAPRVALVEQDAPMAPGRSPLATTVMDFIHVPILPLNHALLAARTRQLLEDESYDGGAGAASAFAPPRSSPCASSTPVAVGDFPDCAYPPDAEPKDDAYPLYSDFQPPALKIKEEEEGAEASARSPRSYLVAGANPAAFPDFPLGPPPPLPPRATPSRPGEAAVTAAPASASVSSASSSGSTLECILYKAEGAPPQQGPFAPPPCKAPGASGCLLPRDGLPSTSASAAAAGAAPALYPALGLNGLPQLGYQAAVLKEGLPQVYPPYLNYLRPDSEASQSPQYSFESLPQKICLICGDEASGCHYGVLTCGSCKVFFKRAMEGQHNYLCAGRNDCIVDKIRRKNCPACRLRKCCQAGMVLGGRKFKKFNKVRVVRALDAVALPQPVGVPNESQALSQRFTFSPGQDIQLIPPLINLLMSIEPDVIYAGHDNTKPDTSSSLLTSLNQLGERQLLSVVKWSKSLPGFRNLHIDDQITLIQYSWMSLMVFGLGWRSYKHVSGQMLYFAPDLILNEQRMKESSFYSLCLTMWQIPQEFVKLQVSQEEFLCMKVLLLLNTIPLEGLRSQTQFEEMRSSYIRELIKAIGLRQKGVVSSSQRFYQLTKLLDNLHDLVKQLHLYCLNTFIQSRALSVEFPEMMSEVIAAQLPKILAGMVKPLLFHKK
The experiment in a line: Inhibition of progesterone receptor.

The target of data set [4] is T1, Androgen receptor. The experiment in a line: biochemical.
Description: Displacement of [3H]dihydrotestosterone from human androgen receptor expressed in Sf9 cells
The nature of data set [5]: Metabolic stability assessed as intrinsic clearance per mg of protein in rat liver microsomes at 5 uM. The data set is classed as ADME, Microsome. In general terms: Liver microsomes are a subcellular fraction often used to study metabolism.
Data set [6] is described as follows: Mean terminal half life in Beagle dog at 0.8 mg/kg, iv after 24 hrs. The data set is classed as ADME, organism-based, Canis lupus familiaris. On the set-up: dose 0.8 mg/kg, route intravenous. To be noted: in vivo, read-out: beta t1/2 (converted).
Data set [7] is described as follows: Metabolic stability assessed as half life in rat liver microsomes at 5 uM. The data set is classed as ADME, Microsome.
Data set [8] is described as follows: Apparent volume of distribution in Beagle dog at 0.8 mg/kg, iv after 24 hrs. The data set is classed as ADME, organism-based, Canis lupus familiaris. On the set-up: dose 0.8 mg/kg, route intravenous. To be noted: in vivo, read-out: Vdss.
In data set [9] the test system is Mus musculus. The experiment in a line: Activation of hair growth in C3H/HeN mouse hair growth model topically dosed twice daily 5 days per week for 4 weeks. The data set is classed as functional, organism-based.
Data set [10] is described as follows: Plasma clearance in Beagle dog at 0.8 mg/kg, iv after 24 hrs. The data set is classed as ADME, organism-based, Canis lupus familiaris. On the set-up: dose 0.8 mg/kg, route intravenous.
Data set [11] deals with NIH3T3. Briefly: Phototoxicity in mouse 3T3 cells by neutral red uptake phototoxicity. It is filed as cell-based.
Data set [12] has as its system Syrian golden hamster. The experiment in a line: Reduction of sebum ester production in golden syrian hamster ear topically dosed twice daily 5 days per week for two weeks. The data set is classed as functional, Mesocricetus auratus.

`COc1cc(-c2ccccc2O)ccc1C#N` displayed an Activity in [1] of 87%. Further, the IC50 in data set [2] amounted to 20.1 nM; in data set [3], 3.25 µM; in [4] it was 37 nM.

`N#Cc1ccc(C2CCCCC2O)cc1C(F)(F)F` (racemic): the IC50 in data set [2] is 90 nM; in data set [3], greater than 10 µM; in [4] it was 26 nM.

As to `N#Cc1ccc(-c2ccccc2O)cc1C(F)(F)F`, the Activity in data set [1] is 86%.

For the molecule `N#Cc1ccc([C@H]2CCCC[C@H]2O)cc1C(F)(F)F`, the results for the Activity in [1] and in data set [11] were 85% and “Non-toxic”, respectively. The 50% inhibitory concentration (IC50) in data set [2] is 43 nM; in data set [3], greater than 10 µM; in data set [4], 37 nM. The microsomal CLint at 5 µM in data set [5] turned out to be 350 µL/min/mg. For the same molecule, in data set [6], the half-life was 156 min. In data set [7], the half-life at 5 µM amounted to 4 min. In data set [8], the Vd is 6.5 L/kg. Moreover, the result in [9] was Active. In data set [10], this molecule displayed a clearance of 40 mL/min/kg. The molecule also displayed an ED50 in data set [12] of 0.4%.

Molecule `CC1(C)C(=O)N(c2ccc(C#N)c(C(F)(F)F)c2)C(=O)N1CCCCO` [RU-58841] showed an Activity in data set [1] of 92%. This molecule returned an IC50 in data set [3] of 1 µM.

With `N#Cc1ccc([C@@H]2CCCC[C@@H]2O)cc1C(F)(F)F`, 1600 nM corresponded to half-maximal inhibition in data set [4] (IC50).

Regarding `C[C@H](c1ccccc1)N(C)c1cc(C(F)(F)F)c(C#N)cn1`, the IC50 in data set [3] stood at 1.66 µM.

`N#Cc1ccc([C@H]2CCCC[C@@H]2O)cc1C(F)(F)F` displayed an IC50 in data set [4] greater than 3000 nM.

In the case of `N#Cc1ccc(O[C@@H]2CCCC[C@H]2C#N)cc1C(F)(F)F`, the IC50 in [3] was greater than 10 µM.

The values are drawn from ChEMBL document CHEMBL1142535, “Rational design and synthesis of 4-((1R,2R)-2-hydroxycyclohexyl)-2(trifluoromethyl)benzonitrile (PF-998425), a novel, nonsteroidal androgen receptor antagonist devoid of phototoxicity for dermatological indications” (J Med Chem, 2008).
